The values below come from PubChem BioAssay (NCI).

Molecules are shown by their SMILES. Where “and” joins values, the source holds several entries; their conditions need not be identical. Equal values may be shown once.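 Five compound concentrations were applied to cells in 96-well plates for 48 hours; endpoints were derived by simple linear interpolation of the resulting dose-response curve. GI50 = concentration required for 50% inhibition of growth. TGI: total growth inhibition.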 A value given as a limit tells only on which side of the number the result lay.

Some test systems named below: HCT-116 colon; ACHN renal; CAKI-1 renal; SF-295 CNS; UO-31 renal; U251 CNS; SNB-19 CNS; CCRF-CEM leukemia; MDA-MB-435; DU-145 prostate.
What all share (assay): NCI tumour cell line growth inhibition, 48 h

`Cc1cccc(-c2nc(=S)[nH][nH]2)c1`: the TGI with HCT-116 colon, with ACHN renal, with CAKI-1 renal, in the assay with SF-295 CNS, in the assay on UO-31 renal and in the assay with U251 CNS was > 100 µM throughout. Also, the TGI in the assay on SNB-19 CNS and in the assay with CCRF-CEM leukemia was > 100 µM in each case.
For the molecule `O=C1C2C3SC(c4cc5ccccc5cc43)C2C(=O)N1c1ccccc1` (configuration not stated), the TGI with HCT-116 colon, in the assay with ACHN renal, with CAKI-1 renal, with SF-295 CNS, in the assay with UO-31 renal and in the assay on U251 CNS was > 100 µM in each case. Further, the TGI in the assay on SNB-19 CNS and with CCRF-CEM leukemia was > 100 µM in each case.
Turning to `CCN(CC)CC(C(=O)Nc1c(C)cccc1C)/C(C)=N\NC(=S)NN` (configuration not stated), the TGI in the assay on HCT-116 colon, in the assay on ACHN renal, with SF-295 CNS, with UO-31 renal, in the assay on U251 CNS and in the assay on CCRF-CEM leukemia was > 100 µM in each case.
In the case of `O=[N+]([O-])c1ccc(Cl)c(C2CC(c3cccc4ccccc34)=Nc3ccccc3S2=O)c1` (configuration not stated), the TGI was 35.1 µM in the assay with HCT-116 colon; 52.9 µM in the assay with ACHN renal; > 69.8 µM in the assay on CAKI-1 renal; 61 µM with SF-295 CNS; > 46.7 µM with UO-31 renal; 20.2 µM in the assay on U251 CNS. Further, the TGI with SNB-19 CNS was > 53.8 µM; in the assay with CCRF-CEM leukemia it was 11.1 µM.
For the molecule `CCC(=O)N1C(=S)SC[C@H]1C(=O)OC`, the TGI in the assay on HCT-116 colon, in the assay on ACHN renal, in the assay on CAKI-1 renal, with SF-295 CNS, in the assay on UO-31 renal and in the assay with U251 CNS was > 100 µM throughout. The TGI with SNB-19 CNS and in the assay on CCRF-CEM leukemia was > 100 µM in each case.
As to `CCOc1ccc2c(c1)[n+]([O-])c(C(N)=O)c(N)[n+]2[O-]`, the TGI with HCT-116 colon, in the assay with ACHN renal, in the assay on CAKI-1 renal, in the assay on SF-295 CNS, in the assay with UO-31 renal and in the assay on U251 CNS was > 100 µM each time. The TGI in the assay on SNB-19 CNS and in the assay with CCRF-CEM leukemia was > 100 µM each time.
Consider `O=c1c(-c2cccc3ccccc23)c(-c2cccc3ccccc23)c1=O`, for which the TGI in the assay with HCT-116 colon is 37.6 µM; in the assay on ACHN renal it was > 100 µM; in the assay with CAKI-1 renal it was > 100 µM; in the assay on SF-295 CNS, 2.82 µM; in the assay with UO-31 renal, > 100 µM; in the assay with U251 CNS it was 18.4 µM. Further, the TGI with SNB-19 CNS is 61 µM; with CCRF-CEM leukemia it was > 50 µM.
For `O=C1/C(=C/c2cc(O)c(O)c(O)c2)Oc2cc(O)cc(OC3OC(CO)C(O)C(O)C3O)c21` (configuration not stated), the TGI in the assay with HCT-116 colon was 31.1 µM; with ACHN renal, 25.7 µM; in the assay with SF-295 CNS it was 34.3 µM; with UO-31 renal, > 100 µM; in the assay with SNB-19 CNS, > 100 µM; with CCRF-CEM leukemia it was 44.5 µM.
Turning to `O=c1cc(-c2cccc(Cl)c2)[nH]c2cc3c(cc12)OCO3`, the GI50 with ACHN renal is 0.565 µM; in the assay with UO-31 renal, 0.743 µM; in the assay on SNB-19 CNS, 0.363 µM. In addition, the TGI is 75 µM and 90.9 µM with ACHN renal; 75 µM and > 100 µM in the assay on UO-31 renal; 10.3 µM in the assay on U251 CNS; 75 µM and 10.2 µM with SNB-19 CNS; 0.193 µM with MDA-MB-435; 75 µM and 22.6 µM in the assay with CCRF-CEM leukemia. For the same molecule, in the assay on DU-145 prostate, the TGI came out at 0.863 µM.
`CCN(CC)C(=O)c1cccc2c(OC)ccc(OC)c12`: the TGI in the assay with HCT-116 colon, in the assay with ACHN renal, with CAKI-1 renal, in the assay with SF-295 CNS, in the assay on UO-31 renal and in the assay with U251 CNS was > 100 µM each time. The TGI with SNB-19 CNS and with CCRF-CEM leukemia was > 100 µM in each case.
As to `O=S(=O)(c1ccccc1)N1CCC1c1ccccc1` (configuration not stated), the TGI in the assay on HCT-116 colon, with ACHN renal, in the assay on SF-295 CNS, in the assay on UO-31 renal, in the assay with U251 CNS and in the assay on SNB-19 CNS was > 100 µM in each case. For the same molecule, in the assay on CCRF-CEM leukemia, the TGI was > 100 µM.
For `CN(c1ccccc1)c1nc(=[N+](C)C)ss1`, the TGI in the assay on HCT-116 colon, in the assay with ACHN renal, in the assay with CAKI-1 renal, in the assay with SF-295 CNS, in the assay on UO-31 renal and with U251 CNS was > 100 µM each time. Further, the TGI in the assay with SNB-19 CNS and in the assay on CCRF-CEM leukemia was > 100 µM each time.
Consider `CN(C)C(=C1C(Br)=C(Br)C(Br)=C1Br)N(C)C`, for which the TGI is > 100 µM in the assay on ACHN renal; > 100 µM in the assay on CAKI-1 renal; > 100 µM with SF-295 CNS; > 100 µM in the assay on UO-31 renal; > 100 µM in the assay with U251 CNS; 95.3 µM with CCRF-CEM leukemia.
For the molecule `O=S1(=O)[C@H](c2ccccc2)c2c(-c3ccccc3)sc(-c3ccccc3)c2[C@@H]1c1ccccc1`, the TGI with ACHN renal, in the assay with CAKI-1 renal, in the assay on SF-295 CNS, with UO-31 renal, with U251 CNS and in the assay on SNB-19 CNS was > 100 µM in each case. For the same molecule, in the assay on CCRF-CEM leukemia, the TGI was > 100 µM.
As to `CC[O-].CC[O-].[O-]c1ccccc1C=NC12CC3CC(CC(C3)C1)C2.[O-]c1ccccc1C=NC12CC3CC(CC(C3)C1)C2.[Ti+4]`, the GI50 with HCT-116 colon is 39.6 µM; in the assay with ACHN renal, > 100 µM; with CAKI-1 renal it was > 100 µM; in the assay on SF-295 CNS, > 100 µM; with UO-31 renal it was 92.3 µM; in the assay with U251 CNS it was > 100 µM. The GI50 was > 100 µM in the assay with SNB-19 CNS and 11 µM with CCRF-CEM leukemia. Moreover, the TGI in the assay with HCT-116 colon, with ACHN renal, in the assay with CAKI-1 renal, with SF-295 CNS, with UO-31 renal and in the assay with U251 CNS was > 100 µM throughout. Besides, the TGI in the assay on SNB-19 CNS and in the assay with CCRF-CEM leukemia was > 100 µM each time.
Regarding `CC1COS(=O)N1c1ccccc1` (configuration not stated), the TGI in the assay with ACHN renal, with SF-295 CNS, with UO-31 renal, in the assay on U251 CNS and in the assay with CCRF-CEM leukemia was > 100 µM in each case.
